Results published in US10731222B2 (RNA Diagnostics Inc., priority 2013, dated 2020).
“Also recorded” adds a separate entry of the source.

Tests used:
[1] = test system: Jurkat leukemia cell line; experiment: Docetaxel-induced RNA disruption, Jurkat; format: cell-based
[2] = test system: docetaxel-resistant A2780DXL cells; experiment: RNA disruption in docetaxel-resistant cells; format: cell-based; details: docetaxel treatment
Description: (§1) A docetaxel A2780 resistant cell line was made as described in Li et al., Int. J. Mol. Med 2004 14(20): 257-264.
A time course experiment was conducted. Sensitive parental and docetaxel resistant A2780 cells were treated with docetaxel for 24 hours. RNA was isolated and run on an Agilent Bioanalyzer.
The a\Ability of RDA to detect potentiators of docetaxel (Dxl) sensitivity. […] Thus, RDA may be used to screen for potentiators of chemotherapy drug cytotoxicity.

[3] = test system: A2780 ovarian tumour cell line; experiment: Apoptosis markers in drug-treated cells (Annexin V-FITC, DNA content, PARP cleavage, caspase activity); format: cell-based, human
Description: Various cell lines were treated with anti-cancer agents and the effects of these treatments on the cellular RNA banding pattern, Annexin V-FITC binding to cells, cellular DNA content, poly ADP ribose polymerase (PARP) cleavage, and cell proliferation in the absence of drug post-treatment were assessed.

A2780 cells = experiment: Cell counts and Recovery Assay of A2780 cells after docetaxel
[4] = test system: A2780 ovarian cancer cells; experiment: RNA disruption in drug-treated A2780 cells (Agilent Bioanalyzer electropherogram, RDI); format: cell-based, human
Description: RNA was isolated from ovarian cancer cell line A2780 cells which had been treated with 10 μM docetaxel in 50% media or 20 μM epirubicin, each in 50% media. Cells were treated with the chemotherapeutic for 24 hours at 37° C. Isolated RNA was separated by microcapillary electrophoresis using the Agilent 2100 Bioanalyzer.
Cells were plated and treated with docetaxel concentrations ranging from 0.001-40 μM for 24 to 72 hours to assess the effect on cell number, RNA content, and integrity (measured using a Bioanalyzer 2100 from Agilent Technologies, Inc.).
A2780 cells treated for up to 72 hours with docetaxel at 0.005 uM and 0.2 uM, were analyzed for the amount of RNA per cell. RNA was isolated and electophoretically separated using an Agilent Bioanalyzer.
RNA was isolated and electrophoretically separated on an Agilent Bioanalyzer. As shown in FIG. 24D bands appeared just below the 28S (e.g. intermediate) and 18S bands (e.g. low banding region) at 0.005 uM and peaked at 0.2 uM.
A time course experiment was conducted in A2780 cells. Cells were treated for up to 72 hours with docetaxel at 0.005 uM and 0.2 uM. RNA was isolated and run on an Agilent Bioanalyzer.
The effect of a caspase inhibitor on RNA integrity changes was next assessed. Cells were treated with or without docetaxel at a concentration of 0.2 uM in the presence or absence of the caspase inhibitor Q-DEVD-OPH (Biovision Laboratories) at a concentration of 10 uM.

parental A2780 cells = experiment: Clonogenic assay, drug-sensitive parental cells; format: cell-based; details: Homo sapiens, 50% of colony formation suppressed
Source text: (§2) RDA like clonogenic assays can be used to identify drugs that are cytotoxic (FIG. 24C iv). […] The cell lines have widely differing sensitivity to docetaxel in a clonogenic assay, with IC50 values differing by over three orders of magnitude.

[5] = test system: CaOV3 ovarian tumour cell line; experiment: Docetaxel-induced RNA disruption, CaOV3; format: cell-based
[6] = test system: docetaxel-resistant A2780DXL cells; experiment: Clonogenic assay, docetaxel-resistant cells; format: cell-based; details: 50% of colony formation suppressed
Source text: as §1, §2

**Q.** Which results are given for `CC(=O)O[C@@]12CO[C@@H]1C[C@H](O)[C@@]1(C)C(=O)[C@H](O)C3=C(C)[C@@H](OC(=O)[C@H](O)[C@@H](NC(=O)OC(C)(C)C)c4ccccc4)C[C@@](O)([C@@H](OC(=O)c4ccccc4)[C@H]21)C3(C)C` [docetaxel]?
**A.** docetaxel-induced RNA disruption [1]: RNA disruption was also observed; RNA disruption / banding below 28S and 18S [2]: no banding is evident; also recorded: did not result in RNA disruption; also recorded: do not show docetaxel-induced RNA disruption; Annexin V-FITC binding [3]: enhance Annexin V-FITC binding to cells; DNA laddering [3]: no DNA laddering was observed; PARP cleavage [3]: induce the cleavage of poly ADP ribose polymerase (PARP); cellular DNA content [3]: generate cells containing a sub-G1 level of DNA content; cellular caspase activity [3]: activated cellular caspase activity; membrane integrity (propidium iodide staining) ([3]; after drug-treatment): lack of propiclium iodide staining; recovery in drug-free media (A2780 cells; 5 nM): permitted cell recovery, but only when the incubation period was 48 hours or less; recovery in drug-free media (A2780 cells; 0.2 uM for up to 72 hours, washed and replated): No resumption of cell proliferation; concentrations at which cell numbers remained constant (A2780 cells; up to 72 hours): greater than or equal to 0.005 uM; amount of RNA per cell ([4]; 0.005 uM and 0.2 uM, up to 72 hours): increase in a time-dependent and dose-dependent manner; electropherogram pattern ([4]; 10 μM in 50% media, 24 hours, 37° C.): an intermediate peak and a peak adjacent to the 18S peak; RDI ([4]; 0.2 micromolar, 72 hrs, 0.23 prior to drug): 3.09; RNA concentration ([4]; 0.2 micromolar, 72 hrs, 1220 prior to drug): about 359 ng/microliter; concentration at which the novel banding peaked ([4]; 24 hours): 0.2 µM; ratio of Low C Area/(28S+18S) ([4]; after 72 hr, little change at 8, 24 or 48 hr): dramatic increase; RIN ([4]; concentrations ≥0.005 uM): did not change significantly; concentration giving reductions in cell number and RIN and increased RDI ([4]; dose and time-dependent): ≥ 0.1 µM; response of cells in culture to the agent ([4]; dose- and time-dependent): RNA disruption; IC50 (parental A2780 cells): ~1.1 nM; docetaxel-induced RNA disruption [5]: RNA disruption was also observed; IC50 [6]: ~650 nM
